These results are taken from US20100028459A1, “NUTRITIONAL SUPPLEMENT COMPOSITION FOR TREATMENT OF OCULAR DISEASES” (priority 2006, published 2010).

Experiment [1] can be described thus: lutein supplementation and AMD incidence (our studies). It is filed as in vivo. Conditions: supplementation of 10 mg/day. How it is done:
Therefore, the subject composition preferably provides preferably 10 mg of pure lutein per composition, e.g. per capsule.

For experiment [2] the following is noted: lutein supplementation in human; cited from earlier work.
For experiment [3] the following is noted: AMD patients; cited from earlier work.

As for `CC1=C[C@H](O)CC(C)(C)[C@H]1/C=C/C(C)=C/C=C/C(C)=C/C=C/C=C(C)/C=C/C=C(C)/C=C/C1=C(C)C[C@@H](O)CC1(C)C` [Lutein], in experiment [1], the AMD incidence result is recorded as “decreases the AMD incidence”. Besides, the macular pigment entry in experiment [2] is “increased macular pigment”.

For the compound Zinc, in experiment [3], the visual field loss entry is reported as “slows visual field loss”.
